Results on one molecule are retold here after patent publication US20090163696A1, “METHOD FOR PREPARING LYSOBACTIN DERIVATIVES” (priority 2006, published 2009).

*1 amine or outer side, *2 acyl side, *3 side chain or, on linkers, in order; H or OH if unused. Where a SMILES comes first, the peptide text is derived from it. Bridges are numbered along the chain shown (N, C = ends). [ ]: non-standard residue; d: D form. ξ: configuration not given here. Phe(3R-OH) = O=C([C@@H](N[*:1])[C@H](O[*:3])c1ccccc1)[*:2]; Asn(3S-OH) = NC(=O)[C@@H](O)[C@H](N)C(=O)O; Leu(3R-OH) = CC(C)[C@@H](O)[C@H](N)C(=O)O; aThr = C[C@H](O)[C@H](N)C(=O)O; ξS = NC(CO)C(=O)O

For the experiment, the system named is Staphylococcus aureus 133, Entercococcus faecalis ICB27159 and Streptococcus pneumoniae G9a. Briefly: Determination of the minimum inhibitory concentration (MIC), liquid dilution test. It is filed as cell-based. The note with it: lysobactin prepared by complete synthesis compared with fermented lysobactin. Here is the method:
The in vitro effect of the compounds of the invention can be shown in the following assay: Determination of the Minimum Inhibitory Concentration (MIC): The MIC is determined in the liquid dilution test in accordance with the NCCLS guidelines. Overnight cultures of Staphylococcus aureus 133, Entercococcus faecalis ICB27159 and Streptococcus pneumoniae G9a are incubated with the described test substances in a 1:2 dilution series. The MIC determination is carried out with a cell count of 10^5 microbes per ml in Isosensitest medium (Difco, Irvine/USA), with the exception of S. pneumoniae, which is tested in BHI broth (Difco, Irvine/USA) with 10% bovine serum at a cell count of 10^6 microbes per ml. The cultures are incubated at 37° C. for 18-24 hours, S. pneumoniae in the presence of 10% CO2. The MIC is defined as the lowest concentration of each substance at which no visible bacterial growth occurs any longer. The MIC values are reported in μg/ml.

`CC[C@H](C)[C@@H]1NC(=O)[C@@H](CCCNC(=N)N)NC(=O)[C@H](CC(C)C)NC(=O)[C@H]([C@H](O)C(C)C)NC(=O)[C@@H](NC(=O)[C@H](CC(C)C)NC(=O)[C@H](N)CC(C)C)[C@@H](c2ccccc2)OC(=O)C(CO)NC(=O)[C@H]([C@H](O)C(N)=O)NC(=O)CNC(=O)[C@H]([C@H](C)O)NC1=O` (stereo partly drawn) [lysobactin, Lysobactin Bistrifluoroacetate] (H-[dL]L[Phe(3R-OH)][Leu(3R-OH)]L[dR]I[aThr]G[Asn(3S-OH)][ξS]; ester 3-C): the “physiological activity (MIC)” value is “No significant differences”.
